# Measured values from PubChem BioAssay (NCI).
#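 Where inhibition never reached the appropriate level, the endpoint shown equals the highest concentration tested. Otherwise, values were interpolated linearly from a five-concentration, 48-hour dose response in 96-well plates. Here, GI50 denotes the concentration required for 50% inhibition of growth. The concentration for full growth arrest is given as TGI.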 Where a SMILES comes first, the peptide text is derived from it. The star is where a group is joined. Boc = CC(C)(C)OC(=O)*; OBn = c1ccc(CO*)cc1
# Columns and labels:
# Assay in all cases: NCI anticancer screen, dose series, 48 h
# [1] = test system: CAKI-1 renal
# [2] = test system: HCT-15 colon
# [3] = test system: HL-60(TB) leukemia
# [4] = test system: HOP-92 NSCLC
# [5] = test system: IGROV1 ovarian
# [6] = test system: KM12 colon
# [7] = test system: MALME-3M melanoma
# [8] = test system: SW-620 colon
# [9] = test system: U251 CNS
# [10] = test system: UACC-62 melanoma
compound,measurement,setting,value
CN(C)Cc1cc(O)c(O)c(CN(C)C)c1,TGI,[1],> 100 µM
same,TGI,[2],> 100 µM
same,TGI,[3],92 µM
same,TGI,[4],> 100 µM
same,TGI,[5],> 100 µM
same,TGI,[6],> 100 µM
same,TGI,[7],> 100 µM
same,TGI,[8],> 100 µM
same,TGI,[9],> 100 µM
same,TGI,[10],> 100 µM
Oc1ccc(SCc2cc(O)c(O)c(O)c2)cc1,TGI,[1],> 100 µM
same,TGI,[2],> 100 µM
same,TGI,[3],> 100 µM
same,TGI,[4],> 100 µM
same,TGI,[5],57.8 µM
same,TGI,[6],42.6 µM
same,TGI,[7],> 100 µM
same,TGI,[8],> 100 µM
same,TGI,[9],> 100 µM
same,TGI,[10],41.4 µM
CN(C)CCSC(=Nc1ccccc1)N1CCCCC1,TGI,[1],> 100 µM
same,TGI,[2],30 µM
same,TGI,[3],49.5 µM
same,TGI,[4],27.5 µM
same,TGI,[5],29.8 µM
same,TGI,[6],31 µM
same,TGI,[7],35.2 µM
same,TGI,[8],31.6 µM
same,TGI,[9],> 100 µM
same,TGI,[10],30.4 µM
Cc1[nH]c2ccccc2c1C=Nc1ccc(N=Cc2c(C)[nH]c3ccccc23)cc1,TGI,[1],> 100 µM
same,TGI,[2],> 100 µM
same,TGI,[3],41.8 µM
same,TGI,[4],> 100 µM
same,TGI,[5],> 100 µM
same,TGI,[6],32.3 µM
same,TGI,[7],> 100 µM
same,TGI,[8],70.2 µM
same,TGI,[9],> 100 µM
same,TGI,[10],> 100 µM
CC[C@H](C)[C@H]1NC(=O)[C@@H](NC(=O)[C@@H](CC(C)C)N(C)CC2CCCN2C(=O)C(C)=O)[C@@H](C)OC(=O)[C@H](Cc2ccc(OC)cc2)N(C)C(=O)C2CCCN2C(=O)[C@H](CC(C)C)NC(=O)[C@@H](C)C(=O)[C@H](C(C)C)OC(=O)C[C@@H]1O (stereo not given in full),TGI,[1],0.338 µM
same,TGI,[2],0.73 µM
same,TGI,[3],0.021 µM
same,TGI,[4],0.0292 µM
same,TGI,[5],0.016 µM
same,TGI,[6],0.0105 µM
same,TGI,[7],0.0474 µM
same,TGI,[8],1.8 µM
same,TGI,[9],0.00534 µM
same,TGI,[10],0.0182 µM
O=C1C(Br)=CC2(C=C1Br)CCNC1=C2C(=O)c2cccnc2C1=O,TGI,[1],32.3 µM
same,TGI,[2],22.6 µM
same,TGI,[3],15.8 µM
same,TGI,[4],30.2 µM
same,TGI,[5],21.8 µM
same,TGI,[6],35.8 µM
same,TGI,[7],21.5 µM
same,TGI,[8],27.3 µM
same,TGI,[9],35.6 µM
same,TGI,[10],12.9 µM
CC(C)c1ccc(/C=C2\CSCC3=C2NC(=S)NC3c2ccc(C(C)C)cc2)cc1 (stereo not given),TGI,[1],> 100 µM
same,TGI,[2],> 100 µM
same,TGI,[3],> 100 µM
same,TGI,[4],> 100 µM
same,TGI,[5],> 100 µM
same,TGI,[6],> 100 µM
same,TGI,[7],> 100 µM
same,TGI,[8],> 100 µM
same,TGI,[9],> 100 µM
same,TGI,[10],> 100 µM
Cc1sc(/N=C/c2c[nH]c3ccccc23)c(C#N)c1C,TGI,[1],> 100 µM
same,TGI,[2],> 100 µM
same,TGI,[3],> 100 µM
same,TGI,[4],> 100 µM
same,TGI,[5],> 100 µM
same,TGI,[6],> 100 µM
same,TGI,[7],> 100 µM
same,TGI,[8],> 100 µM
same,TGI,[9],96.4 µM
same,TGI,[10],78.8 µM
O=C(N/N=C/c1cc(Cl)cc(Cl)c1[O-])c1ccccc1O.O=C(N/N=C/c1cc(Cl)cc(Cl)c1[O-])c1ccccc1O.[Ni+2],TGI,[1],1.41 µM
same,TGI,[2],1.92 µM
same,TGI,[3],0.472 µM
same,GI50,[4],0.495 µM
same,TGI,[4],1.79 µM
same,TGI,[5],1.74 µM
same,GI50,[6],0.494 µM
same,TGI,[6],5.66 µM
same,GI50,[7],0.759 µM
same,TGI,[7],2.36 µM
same,TGI,[8],1.97 µM
same,TGI,[9],1.98 µM
same,TGI,[10],0.693 µM
CCCNC(C#N)c1ccc(C(C#N)NCCC)cc1 (stereo not given),TGI,[1],> 100 µM
same,TGI,[2],> 100 µM
same,TGI,[3],> 100 µM
same,TGI,[4],> 100 µM
same,TGI,[5],> 100 µM
same,TGI,[6],> 100 µM
same,TGI,[7],> 100 µM
same,TGI,[8],> 100 µM
same,TGI,[9],> 100 µM
same,TGI,[10],> 100 µM
[N-]=[N+]=NCc1cccc(Nc2cc(=O)[nH]c(=O)[nH]2)c1,TGI,[1],> 100 µM
same,TGI,[2],> 100 µM
same,TGI,[3],> 100 µM
same,TGI,[4],> 100 µM
same,TGI,[5],> 100 µM
same,TGI,[6],> 100 µM
same,TGI,[7],> 100 µM
same,TGI,[8],> 100 µM
same,TGI,[10],> 100 µM
O=C(OCc1ccccc1)C1(N2CN(C3(C(=O)OCc4ccccc4)CCCC3)CN(C3(C(=O)OCc4ccccc4)CCCC3)C2)CCCC1,TGI,[1],> 10 µM
same,TGI,[2],> 10 µM
same,TGI,[3],> 10 µM
same,TGI,[4],> 10 µM
same,TGI,[5],> 10 µM
same,TGI,[6],> 10 µM
same,TGI,[7],> 10 µM
same,TGI,[8],> 10 µM
same,TGI,[9],> 10 µM
same,TGI,[10],> 10 µM
C/C(=N\NC(N)=S)C(CN(CC(C)C)CC(C)C)C(=O)Nc1ccc(C)cc1C (stereo not given),TGI,[1],> 100 µM
same,TGI,[2],> 100 µM
same,TGI,[3],> 100 µM
same,TGI,[4],> 100 µM
same,TGI,[5],> 100 µM
same,TGI,[6],> 100 µM
same,TGI,[7],> 100 µM
same,TGI,[8],> 100 µM
same,TGI,[9],> 100 µM
same,TGI,[10],> 100 µM
Cc1cc(S(=O)(=O)O)c(NC(=O)C(=O)C2C=CCS2(=O)=O)cc1Cl (stereo not given),TGI,[1],> 100 µM
same,TGI,[2],> 100 µM
same,TGI,[3],> 100 µM
same,TGI,[4],> 100 µM
same,TGI,[5],> 100 µM
same,TGI,[6],> 100 µM
same,TGI,[7],> 100 µM
same,TGI,[8],> 100 µM
same,TGI,[9],> 100 µM
same,TGI,[10],> 100 µM
CC(C)(C)C1(COC(=O)c2ccc(N)cc2)COC1,TGI,[1],> 100 µM
same,TGI,[2],> 100 µM
same,TGI,[3],> 100 µM
same,TGI,[4],> 100 µM
same,TGI,[5],> 100 µM
same,TGI,[6],> 100 µM
same,TGI,[7],> 100 µM
same,TGI,[8],> 100 µM
same,TGI,[9],> 100 µM
same,TGI,[10],> 100 µM
NC(=O)c1ccc2c(c1)S(=O)(=O)c1ccccc1C2=O,TGI,[1],> 100 µM
same,TGI,[2],> 100 µM
same,TGI,[3],> 100 µM
same,TGI,[4],> 100 µM
same,TGI,[5],> 100 µM
same,TGI,[6],> 100 µM
same,TGI,[7],> 100 µM
same,TGI,[8],> 100 µM
same,TGI,[9],> 100 µM
same,TGI,[10],> 100 µM
CC(NC(=O)C(NC(=O)OC(C)(C)C)C(C)C)C(=O)N1CCCC1C(=O)NCC(=O)NC(C(=O)NCC(=O)OCc1ccccc1)C(C)C (stereo not given) (Boc-VAPGVG-OBn; configuration not given here),TGI,[1],> 100 µM
same,TGI,[2],> 100 µM
same,TGI,[3],> 100 µM
same,TGI,[4],> 100 µM
same,TGI,[5],> 100 µM
same,TGI,[7],> 100 µM
same,TGI,[8],> 100 µM
same,TGI,[9],> 100 µM
same,TGI,[10],> 100 µM
Cc1cccc(C2=NC(C)(C)C(C)(C)N=C2c2cccc(C)n2)n1,TGI,[1],> 100 µM
same,TGI,[2],> 100 µM
same,TGI,[3],> 100 µM
same,TGI,[4],> 100 µM
same,TGI,[5],> 100 µM
same,TGI,[6],> 100 µM
same,TGI,[7],> 100 µM
same,TGI,[8],> 100 µM
same,TGI,[9],> 100 µM
same,TGI,[10],> 100 µM
COc1cc(CC2c3cc(OC)c(OC)cc3CCN2C)c(Oc2cc3c(cc2OC)-c2c(O)c(OC)cc4c2C(C3)N(C)CC4)cc1OC (stereo not given),TGI,[1],68.4 µM
same,TGI,[2],33.1 µM
same,TGI,[3],17.9 µM
same,TGI,[4],32.6 µM
same,TGI,[5],45.1 µM
same,TGI,[6],31.3 µM
same,TGI,[7],53.8 µM
same,TGI,[8],> 100 µM
same,TGI,[9],> 100 µM
same,TGI,[10],40.1 µM
C=C(CC[C@@H](C(=O)O)[C@H]1[C@H](O)C[C@@]2(C)C3=CC[C@@H](C(=C)C)[C@](C)(CCC(=O)O)C3=CC[C@]12C)C(C)C,TGI,[1],28.9 µM
same,TGI,[2],31.4 µM
same,TGI,[3],36 µM
same,TGI,[4],33.7 µM
same,TGI,[6],32.6 µM
same,TGI,[7],40.8 µM
same,TGI,[8],55.5 µM
same,TGI,[9],32.8 µM
same,TGI,[10],29.1 µM
